# Values quoted from earlier work as cited in US11590237B2, “Pharmaceutical formulation comprising incretin-insulin conjugates” (Merck Sharp & Dohme Corp., priority 2017, dated 2023).
# Conditions: literature data [21]
compound,measurement,value
CCCCCCCCCCCCCCCC(=O)N[C@@H](CCC(=O)NCCCC[C@H](NC(=O)[C@H](C)NC(=O)[C@H](C)NC(=O)[C@H](CCC(N)=O)NC(=O)CNC(=O)[C@H](CCC(=O)O)NC(=O)[C@H](CC(C)C)NC(=O)[C@H](Cc1ccc(O)cc1)NC(=O)[C@H](CO)NC(=O)[C@H](CO)NC(=O)[C@@H](NC(=O)[C@H](CC(=O)O)NC(=O)[C@H](CO)NC(=O)[C@@H](NC(=O)[C@H](Cc1ccccc1)NC(=O)[C@@H](NC(=O)CNC(=O)[C@H](CCC(=O)O)NC(=O)[C@H](C)NC(=O)[C@@H](N)Cc1cnc[nH]1)[C@@H](C)O)[C@@H](C)O)C(C)C)C(=O)N[C@@H](CCC(=O)O)C(=O)N[C@@H](Cc1ccccc1)C(=O)N[C@H](C(=O)N[C@@H](C)C(=O)N[C@@H](Cc1c[nH]c2ccccc12)C(=O)N[C@@H](CC(C)C)C(=O)N[C@H](C(=O)N[C@@H](CCCNC(=N)N)C(=O)NCC(=O)N[C@@H](CCCNC(=N)N)C(=O)NCC(=O)O)C(C)C)[C@@H](C)CC)C(=O)O [liraglutide],Number of monomers in oligomers,6-12 monomers
